# Measurements: paper PMC9403976, “Elucidating the path to Plasmodium prolyl-tRNA synthetase inhibitors that overcome halofuginone resistance” (Nature Communications, 2022)
# “And” between values parts separate entries of the source, which are not always exact repeats. Equal entries are not always repeated.
# Experiments:
# [1] = test system: halofuginone-induced P. falciparum (elevated proline homeostasis); details: within five generations (10 days); cited from earlier work
# [2] = test system: HFGR-I P. falciparum (elevated proline homeostasis and PfcProRS^L482H); details: HFGR-I vs wild-type; cited from earlier work
# P. falciparum Dd2-2D4 [3] = details: halofuginone pressure; cited from earlier work
# [4] = test system: luciferase-expressing P. berghei ANKA sporozoites; assay: P. berghei liver stage assay in HuH7 cells (luciferase, Bright-Glo); format: cell-based, Plasmodium berghei; details: for Parasite Load, dose-response point: single replicates
# Experimental: (§1) HuH7 cells (Sigma, Cat#: 01042712, Lot:18H009) were cultured in DMEM + L-Glutamine (Gibco) supplemented with 10% (v/v) heat-inactivated FBS (Sigma) and 1% (v/v) antibiotic/antimycotic (Sigma). Hepatocyte cultures were maintained in a standard tissue culture incubator at 37 °C. Anopheles mosquitoes infected with luciferase-expressing P. berghei ANKA sporozoites were obtained from the Sporocore at the University of Georgia. Liver stage P. berghei assays were completed as previously described. Briefly, 4000 HuH7 cells were seeded into 384-well plates (Corning) 1 day prior to infection. Compounds (0–50 µM) were added in triplicate to wells before infection with 4000 P. berghei sporozoites. […] Relative fluorescence and luminescence signal intensities were normalized to the negative control, 1% DMSO. EC50 values were determined using PRISM (V. 8.4.3–9.1.0, GraphPad) through fitting data to a dose-response curve.
# HuH7 cells = assay: HuH7 host hepatocyte viability (CellTiter-Fluor); format: cell-based, human; details: for HuH7 Growth, dose-response point: single replicates
# Experimental: as §1, with “infection.” for “infection. Compounds (0–50 µM) were added in triplicate to wells before infection with 4000 P. berghei sporozoites.”
# P. falciparum Dd2-2D4 [5] = assay: NCP26 resistance selection under intermittent drug pressure; format: cell-based, Plasmodium falciparum; details: 10^9 parasites
# Experimental: In short, parasites were treated with 4x EC50 NCP26 until no parasites were detected by giemsa staining microscopy. […] This cycle was repeated for ~50 generations (~100 days), corresponding to 5–6 cycles of drug pressure.
smiles,measurement,setting,value
O=C(CC1NCCCC1O)Cn1cnc2cc(Br)c(Cl)cc2c1=O (centres unmarked) [Halofuginone],tolerance of halofuginone-induced bulk cultures,[1],10–20 fold
same,fold less sensitive (HFGR-I parasites),[2],~ 400 fold
same,generations until resistant parasites arise,P. falciparum Dd2-2D4 [3],< 5 generations
O=C(NC1Cc2ccccc2C1)c1nccnc1NC(=O)N1CCCCC1 [NCP26],"Parasite Load, dose-response point",[4]; Log[inhibitor] (M) -5.602,4.50E-01 and 4.96E-01 and 3.82E-01
same,"Parasite Load, dose-response point",[4]; Log[inhibitor] (M) -6.000,6.73E-01 and 1.77E+00 and 8.83E-01
same,"Parasite Load, dose-response point",[4]; Log[inhibitor] (M) -6.301,2.58E+00 and 1.62E+00 and 1.38E+00
same,"Parasite Load, dose-response point",[4]; Log[inhibitor] (M) -6.602,2.09E+01 and 4.21E+01 and 3.50E+01
same,"Parasite Load, dose-response point",[4]; Log[inhibitor] (M) -7.602,1.02E+02 and 9.26E+01 and 8.31E+01
same,"Parasite Load, dose-response point",[4]; Log[inhibitor] (M) -8.602,9.21E+01 and 5.24E+01 and 5.53E+01
same,"Parasite Load, dose-response point",[4]; Log[inhibitor] (M) -9.602,7.79E+01 and 6.82E+01 and 1.12E+02
same,"Parasite Load, dose-response point",[4]; Log[inhibitor] (M) -9.903,5.64E+01 and 9.94E+01 and 8.54E+01
same,EC50,"[4]; Plasmodium berghei, Huh-7, HuH7 cells infected with sporozoites, ~44 hpi",232 nM
same,EC50,"HuH7 cells; Homo sapiens, Huh-7, HuH7 cell viability, ~44 hpi",> 2500 nM
same,"HuH7 Growth, dose-response point",HuH7 cells; Log[inhibitor] (M) -5.602,6.24E+01 and 5.40E+01 and 5.94E+01
same,"HuH7 Growth, dose-response point",HuH7 cells; Log[inhibitor] (M) -6.000,6.34E+01 and 6.90E+01 and 6.75E+01
same,"HuH7 Growth, dose-response point",HuH7 cells; Log[inhibitor] (M) -6.301,6.99E+01 and 7.05E+01 and 6.37E+01
same,"HuH7 Growth, dose-response point",HuH7 cells; Log[inhibitor] (M) -6.602,7.89E+01 and 8.13E+01 and 7.81E+01
same,"HuH7 Growth, dose-response point",HuH7 cells; Log[inhibitor] (M) -7.602,9.65E+01 and 1.01E+02 and 8.52E+01
same,"HuH7 Growth, dose-response point",HuH7 cells; Log[inhibitor] (M) -8.602,9.96E+01 and 1.08E+02 and 9.36E+01
same,"HuH7 Growth, dose-response point",HuH7 cells; Log[inhibitor] (M) -9.602,1.01E+02 and 1.06E+02 and 1.03E+02
same,"HuH7 Growth, dose-response point",HuH7 cells; Log[inhibitor] (M) -9.903,1.05E+02 and 1.11E+02 and 1.08E+02
same,resistance to NCP26 after selection,"P. falciparum Dd2-2D4 [5]; >50 generations (100 days), 2 out of 3 selections",20-to-80 fold
same,generations until resistance arises,P. falciparum Dd2-2D4 [5]; intermittent drug pressure,> 50 generations
